Assay results reported in ChEMBL document CHEMBL4680156, “Discovery of novel pyrido-pyrrolidine hybrid compounds as alpha-glucosidase inhibitors and alternative agent for control of type 1 diabetes” (Eur J Med Chem, 2020).

Legend:
[1] = Non-competitive inhibition of rat intestinal alpha-glucosidase; assay type: tissue-based, Intestine
[2] = Inhibition of Saccharomyces cerevisiae alpha-glucosidase using PNPG as substrate incubated for 10 mins by spectrophotometric method
[3] = biological target: T1, Tissue alpha-L-fucosidase (Bos taurus, UniProt Q2KIM0); assay: Inhibition of bovine kidney alpha-fucosidase using […] as substrate incubated for 10 mins by spectrophotometric method
T1 sequence (Q2KIM0 whole entry): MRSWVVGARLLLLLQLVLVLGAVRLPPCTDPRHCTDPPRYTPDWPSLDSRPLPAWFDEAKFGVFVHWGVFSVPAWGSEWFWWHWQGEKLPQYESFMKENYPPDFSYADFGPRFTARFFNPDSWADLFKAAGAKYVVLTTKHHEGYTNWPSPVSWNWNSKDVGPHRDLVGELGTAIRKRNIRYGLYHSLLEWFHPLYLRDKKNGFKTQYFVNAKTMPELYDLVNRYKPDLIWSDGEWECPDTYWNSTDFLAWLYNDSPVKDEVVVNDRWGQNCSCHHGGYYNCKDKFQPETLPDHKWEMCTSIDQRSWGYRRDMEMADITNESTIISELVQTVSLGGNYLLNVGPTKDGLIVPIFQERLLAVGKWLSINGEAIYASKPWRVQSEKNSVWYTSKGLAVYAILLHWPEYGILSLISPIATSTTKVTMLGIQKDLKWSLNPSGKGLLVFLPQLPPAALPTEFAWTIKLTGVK

[4] = biological target: T2, Alpha-mannosidase (Canavalia ensiformis, UniProt C0HJB3); assay: Inhibition of jack bean alpha-mannosidase using […] as substrate incubated for 10 mins by spectrophotometric method
T2 sequence (C0HJB3 whole entry): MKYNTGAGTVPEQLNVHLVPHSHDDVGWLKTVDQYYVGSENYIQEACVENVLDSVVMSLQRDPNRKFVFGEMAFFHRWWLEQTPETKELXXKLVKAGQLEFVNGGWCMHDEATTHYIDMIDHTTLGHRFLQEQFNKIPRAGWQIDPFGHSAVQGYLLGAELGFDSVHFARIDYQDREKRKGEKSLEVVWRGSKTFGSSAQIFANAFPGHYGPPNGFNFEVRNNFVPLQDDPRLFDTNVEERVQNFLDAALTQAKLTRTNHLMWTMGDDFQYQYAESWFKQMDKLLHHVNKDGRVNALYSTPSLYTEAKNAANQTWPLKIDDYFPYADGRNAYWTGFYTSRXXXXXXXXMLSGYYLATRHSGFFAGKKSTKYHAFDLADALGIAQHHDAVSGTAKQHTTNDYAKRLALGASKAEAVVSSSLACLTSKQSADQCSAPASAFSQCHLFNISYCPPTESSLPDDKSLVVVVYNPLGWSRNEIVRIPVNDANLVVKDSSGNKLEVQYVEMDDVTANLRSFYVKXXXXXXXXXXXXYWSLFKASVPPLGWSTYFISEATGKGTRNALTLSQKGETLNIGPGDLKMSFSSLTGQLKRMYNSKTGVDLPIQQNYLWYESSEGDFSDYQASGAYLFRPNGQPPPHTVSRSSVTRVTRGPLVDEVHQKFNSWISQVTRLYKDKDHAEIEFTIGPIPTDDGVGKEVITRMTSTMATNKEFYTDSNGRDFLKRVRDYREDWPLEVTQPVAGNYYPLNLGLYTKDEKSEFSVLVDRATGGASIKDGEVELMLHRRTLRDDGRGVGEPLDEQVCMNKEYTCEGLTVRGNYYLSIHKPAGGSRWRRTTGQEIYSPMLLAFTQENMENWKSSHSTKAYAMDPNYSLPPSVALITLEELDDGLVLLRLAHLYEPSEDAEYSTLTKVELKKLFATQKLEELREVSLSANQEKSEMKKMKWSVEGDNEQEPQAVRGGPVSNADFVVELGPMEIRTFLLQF

[5] = Inhibition of Saccharomyces cerevisiae alpha-glucosidase using pNPG as substrate preincubated for 15 mins followed by substrate addition and measured after 30 mins by spectrophotometric analysis
[6] = biological target: T3, Alpha-mannosidase (Canavalia ensiformis) (UniProt C0HJB3); assay: Inhibition of jack bean alpha-mannosidase at 1 mM using […] as substrate incubated for 10 mins by spectrophotometric method
T3 sequence (whole entry): T2 sequence (C0HJB3 whole entry)

IC50 [5] [µM] | inhibition [6] [%] | Compound | Ki [1] [µM] | IC50 [2] [µM] | IC50 [3] [µM] | IC50 [4] [µM]
– | – | CCC/C=C1/OC(=O)c2ccccc21 [(E)-BUTYLIDENEPHTHALIDE] | 4.86 | 7.15 | 82 | 41
0.16 | < 50 | CCCCCCCCn1cnc2cc(N)c(-c3ccccc3O)cc21 | – | 5.03 | – | –
